Measured values published in article PMC6176987, “Correction of cognitive deficits in mouse models of Down syndrome by a pharmacological inhibitor of DYRK1A” (Disease Models & Mechanisms, 2018).

What was measured:
Ts65Dn mice = test: Novel object recognition (NOR) test in Ts65Dn mice; assay type: in vivo, mouse; details: daily i.p. treatment for 19 days
Method: (§1) Behavioural studies were conducted in 12- to 20-week-old male animals. All assessments were scored blind to genotype and treatment, as recommended by the ARRIVE guidelines ([Karp et al., 2015]; [Kilkenny et al., 2010]). […] The final formulation was prepared just prior to use as a 2 mg/ml solution diluted in PEG300/water (50/45), to reach a final DMSO/PEG300/water 5/50/45 (v/v/v) mix. Treated animals received a daily dose (5, 12 or 19 days) of this formulation by i.p. injection of 20 mg/kg/day. Nontreated animals received the same formulation without L41.
(§2) The NOR task is based on the innate tendency of rodents to differentially explore a novel object over a familiar one ([Ennaceur and Delacour, 1988]). Day 1 was a habituation session. Mice freely explored the apparatus, a white circular arena (53 cm diameter) placed in a dimly lit testing room (40 lux). On day 2, the acquisition phase, mice were free to explore two identical objects for 10 min. Mice were then returned to their home cage for a 24 h retention interval. […] Object exploration was manually scored and defined as the orientation of the nose to the object at a distance <1 cm. For the retention phase, the percent of time spent exploring familiar versus novel objects was calculated to assess memory performance.

DYRK1A [1] = biological target: T1, DYRK1A (Mus musculus, UniProt Q61214); test: Brain DYRK1A catalytic activity after treatment, wt mice; assay type: in vivo; details: 19 days daily i.p.
T1 construct: DYRK1A was purified from brain extracts by immunoprecipitation; from tissue; host or cells: mouse brain (wt, Tg(Dyrk1a), Ts65Dn)
Method: (§3) Protein kinase assays to measure the catalytic activity of DYRK1A in the brains of the animals treated with or without drugs were performed as follows: frozen half brains were homogenized in lysis buffer (1.2 ml/half brain) using Precellys® homogenizer tubes. After centrifugation at 2800 g for 2×15 s, 1 mg brain extract was incubated with 2 µg DYRK1A (H00001859 M01, Interchim) or GSK3-β (MBS8508391, Emelca Bioscience, France) antibodies at 4°C for 1 h under gentle rotation. Then, 20 µl protein G agarose beads (Thermo Fisher Scientific, France), previously washed three times with bead buffer (50 mM Tris pH 7.4, 5 mM NaF, 250 mM NaCl, 5 mM EDTA, 5 mM EGTA, 0.1% Nonidet P-40 and protease inhibitor cocktail from Roche, France), were added to the mix and gently rotated at 4°C for 30 min. After a 1 min spin at 10,000 g and removal of the supernatant, the pelleted immune complexes were washed three times with bead buffer, and a last time with Buffer C (60 mM β-glycerophosphate, 30 mM p-nitrophenolphosphate, 25 mM Mops pH 7.2, 5 mM EGTA, 15 mM MgCl2, 2 mM dithiothreitol, 0.1 mM sodium orthovanadate, 1 mM phenylphosphate, protease inhibitor cocktail). DYRK1A or GSK-3 immobilized on beads were assayed in buffer C as described in the Supplementary Materials and Methods with Woodtide ([…]) (1.5 µg/assay) or GSK3-tide ([…]pSED-EEE, where pS stands for phosphorylated serine) as substrates.

Dp1Yey mice = test: Resting state fMRI brain functional connectivity, Dp1Yey mice; details: L41-treated vs vehicle-treated Dp1Yey mice
wt mice = test: Novel object recognition (NOR) test in wt mice; assay type: in vivo, mouse; details: 20 mg/kg daily i.p., 5, 12 or 19 days
Method: as §1, §2

DYRK1A [2] = biological target: T1, DYRK1A; test: Brain DYRK1A catalytic activity after treatment, Ts65Dn mice; assay type: in vivo; details: 19 days daily i.p., normalized to GSK-3α/β activity
Method: as §3

CDK2/cyclin A = CDK2/cyclin A (Homo sapiens, UniProt P24941); test: Recombinant protein kinase assay, CDK2/cyclin A; assay type: biochemical; details: 15 µM ATP
DYRK1A [3] = biological target: T1, DYRK1A; test: In vitro kinase activity of DYRK1A immunopurified from mouse brains; assay type: biochemical; details: DYRK1A from untreated wt, Tg(Dyrk1a) and Ts65Dn brains, increasing concentrations
Dyrk1a mRNA = test: Brain Dyrk1a mRNA expression by qPCR after treatment; assay type: in vivo, mouse; details: 19 days daily i.p., Tg(Dyrk1a), Ts65Dn and wt brains
From the text: To validate the Tg(Dyrk1a) and Ts65Dn models in terms of DYRK1A expression and function, we first verified the expression levels of Dyrk1a mRNA (Fig. 4A) and DYRK1A protein (Fig. 4B) in brains derived from control or L41-treated animals (19 days, daily i.p.). Total mRNAs were extracted from brains and Dyrk1a, Gsk-3b and Rplp0 mRNAs were quantified by quantitative polymerase chain reaction (qPCR) with specific primers. […] We next measured DYRK1A catalytic activities from transgenic and wt brain protein extracts (Fig. 4C). […] As expected, DYRK1A activity was elevated by ∼1.5- to 1.8-fold in transgenic brains compared with wt brains (Fig. 4C).
Fig. 4. Dyrk1a mRNA and DYRK1A protein expression, and catalytic activity in Tg(Dyrk1a) and corresponding wt mice brains, and in Ts65Dn and corresponding wt mice brains. (A) mRNA expression. Total RNA was extracted, purified and reverse transcribed into cDNA. mRNA expression of Dyrk1a, Gsk-3b and reference Rplp0 was quantified by qPCR from the amplification of cDNA with specific primers (one primer annealing to an exon-exon junction). Results are presented as mean±s.e. of four to six measurements and are shown relative to Rplp0 expression, normalized to wt Gsk-3b expression. (B) Protein expression. Total proteins were extracted, resolved by SDS-PAGE and analysed by WB using antibodies directed against DYRK1A, GSK-3α/β and actin (loading control). […]

## O=C1NC(Nc2ccccc2)=N/C1=C\c1ccc2c(c1)OCO2 [L41]
Ts65Dn mice
  NOR test outcome: rescue
DYRK1A [1]
  Effect on brain DYRK1A activity: did not reduce
Dp1Yey mice
  Effect on altered default mode network (DMN) pattern: rescued
Wt mice
  Effect on NOR performance of wt animals: no effect
DYRK1A [2]
  Reduction of brain DYRK1A activity: ~30%
CDK2/cyclin A
  IC50: > 10 µM
DYRK1A [3]
  In vitro inhibition of brain DYRK1A: almost fully inhibited
Dyrk1a mRNA
  Effect on Dyrk1a mRNA levels: did not modify
